From ChEMBL document CHEMBL1124494, “Synthesis and biological evaluation of S-adenosyl-1,12-diamino-3-thio-9-azadodecane, a multisubstrate adduct inhibitor of spermine synthase” (J Med Chem, 1989) come the findings set out here.

For the assay, the target named is T1, Spermidine synthase (Rattus norvegicus, UniProt Q99MI5).
T1 sequence (Q99MI5 whole entry): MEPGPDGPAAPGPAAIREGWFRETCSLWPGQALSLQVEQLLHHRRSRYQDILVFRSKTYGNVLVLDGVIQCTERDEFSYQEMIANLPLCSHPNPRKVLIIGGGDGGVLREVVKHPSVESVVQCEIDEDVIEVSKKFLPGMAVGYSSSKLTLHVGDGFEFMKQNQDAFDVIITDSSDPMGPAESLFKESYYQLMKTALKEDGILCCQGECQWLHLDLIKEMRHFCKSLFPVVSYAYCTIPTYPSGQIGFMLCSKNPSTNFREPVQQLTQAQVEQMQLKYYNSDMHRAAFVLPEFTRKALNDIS
Briefly: Inhibition of spermidine synthase activity was evaluated. To be noted: read-out: I50.

The structures appear in SMILES notation. pIC50: −log10 of the molar value.

In the case of `CCCCCC(CC)SC[C@H]1OC(n2cnc3c(N)ncnc32)[C@H](O)[C@@H]1O` (stereo partly drawn), the pIC50 was below 3.30.
On to `NCCCNCCCCCC(CCN)SC[C@H]1OC(n2cnc3c(N)ncnc32)[C@H](O)[C@@H]1O` (stereo partly drawn), for which the pIC50 was below 4.89.
For `CCCNCCCCCC(CC)SC[C@H]1OC(n2cnc3c(N)ncnc32)[C@H](O)[C@@H]1O` (stereo partly drawn) the value was below 3.30.
